This note sets out measurements from ChEMBL document CHEMBL6074718, “Discovery and biological evaluation of potent 2-trifluoromethyl acrylamide warhead-containing inhibitors of protein disulfide isomerase” (Eur J Med Chem, 2025).

The source made the active and inactive calls. The calls are words filed in the database; no cut-off is given here.

Data set [1] addresses T1, Protein disulfide-isomerase (Homo sapiens, UniProt P07237). The data set is described as follows: Inhibition of recombinant PDI (unknown origin) preincubated for 1 hrs followed by bovine insulin addition and measured after 80 mins by absorbance based reductase assay.
Target sequence in this assay (P07237 whole entry): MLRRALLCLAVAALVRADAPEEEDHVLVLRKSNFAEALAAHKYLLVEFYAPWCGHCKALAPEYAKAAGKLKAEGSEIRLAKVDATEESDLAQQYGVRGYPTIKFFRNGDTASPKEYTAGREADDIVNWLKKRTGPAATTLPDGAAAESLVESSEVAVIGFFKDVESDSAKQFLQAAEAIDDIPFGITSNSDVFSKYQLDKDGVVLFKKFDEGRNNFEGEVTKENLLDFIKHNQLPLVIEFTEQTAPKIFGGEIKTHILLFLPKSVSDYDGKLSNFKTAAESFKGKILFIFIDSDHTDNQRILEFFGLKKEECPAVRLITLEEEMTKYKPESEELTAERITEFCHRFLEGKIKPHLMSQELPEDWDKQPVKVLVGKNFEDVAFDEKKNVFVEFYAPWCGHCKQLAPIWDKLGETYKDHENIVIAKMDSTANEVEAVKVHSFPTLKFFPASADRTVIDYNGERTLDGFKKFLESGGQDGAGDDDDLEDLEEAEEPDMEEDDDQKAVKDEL
Data set [2] addresses T2, Protein disulfide-isomerase A3 (Homo sapiens, UniProt P30101).
T2 sequence (P30101 whole entry): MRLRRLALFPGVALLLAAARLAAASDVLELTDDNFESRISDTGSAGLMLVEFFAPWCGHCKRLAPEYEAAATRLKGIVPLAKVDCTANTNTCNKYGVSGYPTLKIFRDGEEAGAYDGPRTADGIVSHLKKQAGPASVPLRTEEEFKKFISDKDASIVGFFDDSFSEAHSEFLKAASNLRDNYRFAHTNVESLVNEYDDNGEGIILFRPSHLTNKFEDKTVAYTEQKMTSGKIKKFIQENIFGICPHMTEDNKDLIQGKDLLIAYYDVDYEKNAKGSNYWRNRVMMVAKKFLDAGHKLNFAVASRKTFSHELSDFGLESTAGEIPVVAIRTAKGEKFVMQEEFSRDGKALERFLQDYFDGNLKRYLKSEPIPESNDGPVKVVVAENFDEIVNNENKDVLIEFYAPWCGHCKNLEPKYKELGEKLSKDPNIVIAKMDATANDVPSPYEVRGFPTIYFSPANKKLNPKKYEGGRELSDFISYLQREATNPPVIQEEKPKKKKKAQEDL
The data set is described as follows: Inhibition of recombinant PDIA3 (unknown origin) preincubated for 1 hrs followed by bovine insulin addition and measured after 80 mins by absorbance based reductase assay.

Data set [3] deals with T1, Protein disulfide-isomerase. The data set is described as follows: Irreversible inhibition of recombinant PDI (unknown origin) at 4 uM preincubated for 1 hrs and measured after 10 fold dilution by absorbance based analysis.
Target sequence in this assay (P07237 18-508 limits assumed): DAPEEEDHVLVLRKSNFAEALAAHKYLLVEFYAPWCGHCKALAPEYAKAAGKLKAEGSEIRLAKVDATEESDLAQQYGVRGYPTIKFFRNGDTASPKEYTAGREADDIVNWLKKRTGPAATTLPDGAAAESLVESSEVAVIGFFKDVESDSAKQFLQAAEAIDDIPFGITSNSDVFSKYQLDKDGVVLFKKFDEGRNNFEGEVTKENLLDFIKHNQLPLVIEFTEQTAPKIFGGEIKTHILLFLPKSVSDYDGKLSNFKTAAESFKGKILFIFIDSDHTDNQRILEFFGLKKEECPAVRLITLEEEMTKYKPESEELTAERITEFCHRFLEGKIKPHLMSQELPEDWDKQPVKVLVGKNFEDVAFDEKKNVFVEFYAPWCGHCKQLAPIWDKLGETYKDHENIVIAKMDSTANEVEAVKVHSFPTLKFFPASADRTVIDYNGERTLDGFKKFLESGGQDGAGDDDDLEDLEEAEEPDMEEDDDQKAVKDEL
Data set [4] has as its target T3, Protein disulfide-isomerase A6 (Homo sapiens, UniProt Q15084).
T3 sequence (Q15084 whole entry): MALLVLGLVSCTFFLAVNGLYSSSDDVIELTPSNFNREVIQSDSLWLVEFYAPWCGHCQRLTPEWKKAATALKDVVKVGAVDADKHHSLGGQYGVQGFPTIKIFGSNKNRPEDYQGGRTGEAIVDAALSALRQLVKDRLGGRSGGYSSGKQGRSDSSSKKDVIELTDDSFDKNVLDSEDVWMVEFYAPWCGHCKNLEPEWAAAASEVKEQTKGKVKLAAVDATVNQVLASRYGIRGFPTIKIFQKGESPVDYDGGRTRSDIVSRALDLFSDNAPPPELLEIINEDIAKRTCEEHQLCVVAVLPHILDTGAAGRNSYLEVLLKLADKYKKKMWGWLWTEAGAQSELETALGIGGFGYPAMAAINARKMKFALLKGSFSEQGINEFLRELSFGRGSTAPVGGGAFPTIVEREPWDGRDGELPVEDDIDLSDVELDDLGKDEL
The data set is described as follows: Inhibition of recombinant PDIA6 (unknown origin) preincubated for 1 hrs followed by bovine insulin addition and measured after 80 mins by absorbance based reductase assay.

Data set [5] relates to Platelet. The data set is described as follows: Antiplatelet aggregation activity in human Platelet assessed as inhibition of thrombin- induced aggregation at 50 to 200 uM preincubated for 3 mins followed by thrombin addition by turbidimetric aggregometry. The format is functional, cell-based. Conditions: dose 50-200 µM.
The test system of data set [6] is Platelet. The data set is described as follows: Antiplatelet aggregation activity in human Platelet assessed as inhibition of U46619- induced aggregation at 50 to 200 uM preincubated for 3 mins followed by U46619 addition by turbidimetric aggregometry. Format: functional, cell-based. Particulars: dose 50-200 µM.
Data set [7] deals with Blood. The data set is described as follows: Antithrombotic activity in citrated-human whole blood assessed as reduction in coverage area of thrombi on collagen-coated chamber at 200 uM incubated for 10 mins in presence of DiOC6(3) by fluorescence microscopic analysis relative to control. The format is functional. Also on record: scale not given: the % may be the effect or the level left.

Data set [8] in a line: Antiplatelet aggregation activity in human Platelet assessed as inhibition of collagen- induced aggregation preincubated for 3 mins followed by collagen addition by turbidimetric aggregometry.
Data set [9] deals with Blood. The data set is described as follows: Antithrombotic activity in citrated-human whole blood assessed as reduction in coverage area of thrombi on collagen-coated chamber at 100 uM incubated for 10 mins in presence of DiOC6(3) by fluorescence microscopic analysis relative to control. The format is functional. Details: scale not given: the % may be the effect or the level left.

Data set [10] has as its system HUVEC. The data set is described as follows: Cytotoxicity against HUVEC cells assessed as reduction in cell viability at 5 to 40 uM incubated for 24 hrs by MTT assay. Format: toxicity, cell-based. Particulars: human, dose 5-40 µM. On the technique in general: Tetrazolium dyes change colour on reduction, which living cells bring about.
Data set [11] concerns HepG2. The data set is described as follows: Antiproliferative activity against human HepG2 cells assessed as reduction in cell viability at 5 to 40 uM incubated for 24 hrs by MTT assay. The format is functional, cell-based. Particulars: dose 5-40 µM.
Data set [12] in a line: Antiplatelet aggregation activity in human Platelet assessed as reduction in U46619-induced secretion of p-selectin at 5 uM preincubated for 3 mins followed by U46619 addition and measured after 5 mins by flow cytometric analysis relative to control. The format is functional. Also on record: scale not given: the % may be the effect or the level left. Particulars: time 8 min. On the technique in general: In flow cytometry, cells or beads pass a laser one at a time.

For data set [13], the system named is A549. The data set is described as follows: Antiproliferative activity against human A549 cells assessed as reduction in cell viability at 5 to 40 uM incubated for 24 hrs by MTT assay. Format: functional, cell-based. Conditions: dose 5-40 µM.
The target in data set [14] is T1, Protein disulfide-isomerase. The data set is described as follows: Inhibition of recombinant PDI (unknown origin) at 0.2 uM preincubated for 1 hrs and measured after 10 fold dilution by absorbance based analysis.
Target sequence in this assay (P07237 18-508 limits assumed): as the sequence (P07237 18-508 limits assumed) above
Data set [15] can be described thus: Antiplatelet aggregation activity in human Platelet assessed as inhibition of U46619- induced aggregation preincubated for 3 mins followed by U46619 addition by turbidimetric aggregometry.
In data set [16] the target is T1, Protein disulfide-isomerase. The data set is described as follows: Inhibition of PDI in human Platelet assessed as reduction in […] activation by measuring decrease in PAC-1 binding at 5 uM preincubated for 3 mins followed by U46619 addition and measured after 5 mins by flow cytometric analysis. The format is cell-based. Particulars: time 8.0 min.
Target sequence in this assay (P07237 18-508 limits assumed): as the sequence (P07237 18-508 limits assumed) above
A short description of data set [17]: Antiplatelet aggregation activity in human Platelet assessed as inhibition of thrombin- induced aggregation preincubated for 3 mins followed by thrombin addition by turbidimetric aggregometry.
Data set [18] relates to Blood. The data set is described as follows: Antithrombotic activity in citrated-human whole blood assessed as reduction in coverage area of thrombi on collagen-coated chamber at 5 uM incubated for 10 mins in presence of DiOC6(3) by fluorescence microscopic analysis relative to control. Format: functional. Details: scale not given: the % may be the effect or the level left.

Data set [19] has as its system MDA-MB-231. The data set is described as follows: Antiproliferative activity against human MDA-MB-231 cells assessed as reduction in cell viability at 5 to 40 uM incubated for 24 hrs by MTT assay. The format is functional, cell-based. Conditions: dose 5-40 µM.

Consider `C=C(F)C(=O)Nc1cc(OC)c(OC)cc1C(=O)OC`, for which the IC50 in [1] is over 40000 nM. For `C=C(C(=O)Nc1ccc(OCc2ccccc2)c(OC)c1)C(F)(F)F`, in data set [1], the concentration for half-maximal inhibition (IC50) is 810 nM. On the same count and under the same terms, the same measure for `C=C(C(=O)Nc1ccc(OC)c(OC)c1)C(F)(F)F`: 3000 nM; for `COC(=O)c1cc(OC)c(OC)cc1NC(=O)C1CO1` (stereo not given): over 40000 nM. Turning to `C#CC(=O)N(c1ccc(OC)c(OC)c1)C(C(=O)NCC(=O)OCC)c1cccs1` (stereo not given), the IC50 in [2] is 28100 nM; in data set [1], 12400 nM; in [4] it was over 40000 nM. For the same compound, the inhibition entry in data set [3] is “Active”. Turning to `C=C(C(=O)Nc1ccc(OCC)c(OC)c1)C(F)(F)F`, in data set [1], the concentration for half-maximal inhibition (IC50) was 1620 nM. The same measure, in the same setting: the same measure for `C=C(C(=O)Nc1ccc(CN2CCOCC2)cc1)C(F)(F)F`: 1210 nM; for `C=C(C(=O)Nc1ccc(C(F)(F)F)cc1)C(F)(F)F`: 680 nM. The same measure, in the same setting: the same measure for `C=C(C(=O)Nc1cc(OC)c(OC)c(OC)c1)C(F)(F)F`: 580 nM. The same measure, in the same setting: the same measure for `COC(=O)c1cc(OC)c(OC)cc1NC(=O)C12CC1C2` (stereo not given): over 40000 nM; for `COC(=O)/C=C/C(=O)Nc1cc(OC)c(OC)cc1C(=O)OC`: over 40000 nM; for `C=C(C(=O)Nc1ccc(Cc2ccccc2)cc1)C(F)(F)F`: 560 nM. As for `C#CC(=O)Nc1cc(OC)c(OC)cc1C(=O)OC`, the IC50 in data set [1] is 1600 nM. As to `CC(=O)Oc1ccccc1C(=O)O` [ASPIRIN], the result in data set [5] and in [6] was inactive. Besides, the Activity in data set [7] came out at 46%; in data set [9] it was 21%. Moreover, the IC50 in data set [8] was determined as 74500 nM. Take `C=C(C(=O)Nc1ccc2c(c1)OCO2)C(F)(F)F`: in data set [1], the IC50 turned out to be 2910 nM. On the same count and under the same terms, the same measure for `C=C(C(=O)Nc1ccc(-c2ccccc2)cc1)C(F)(F)F`: 1630 nM. Turning to `C=C(C(=O)Nc1ccc(C(=O)c2ccccc2)cc1)C(F)(F)F`, the Activity entry in data set [10] is “Non-toxic”; in [12], 52%; in data set [18], 36%. Further, the outcome in data set [11], in data set [13] and in data set [19] was inactive. Moreover, the IC50 was 1520 nM in [2]; 480 nM in data set [1]; 7100 nM in data set [4]; 13000 nM in data set [8]; 3500 nM in [15]; 25500 nM in data set [17]. Also, the inhibition result in [14] was “Not active; Compound Exhibited Reversible Binding Mode With Pdi”. Moreover, the inhibition entry in data set [16] was “Active”.

For `C=C(C(=O)Nc1cc(OC)c(OC)cc1C(=O)OC)C(F)(F)F`, in [1], the half-maximal inhibitory concentration (IC50) amounted to 2200 nM. With `C=C(C(=O)Nc1ccc(N(CC)CC)cc1)C(F)(F)F`, in [1], the half-inhibitory concentration (IC50) was determined as 840 nM.

Turning to `COC(=O)c1cc(OC)c(OC)cc1NC(=O)CCl`, the IC50 in data set [1] was over 40000 nM. The same measure, in the same setting: the same measure for `C=CS(=O)(=O)Oc1cc(OC)c(OC)cc1C(=O)OC`: 1100 nM.

In the case of `C=C(C(=O)Nc1ccc(C(C)(C)C)cc1)C(F)(F)F`, the IC50 in data set [1] came out at 870 nM. Same read-out and setting: the same measure for `C=C(C(=O)Nc1ccc(OCCC)c(OC)c1)C(F)(F)F`: 1230 nM. Still for that read-out and setting: the same measure for `C=CS(=O)(=O)Nc1cc(OC)c(OC)cc1C(=O)OC`: 19100 nM; for `C=CC(=O)Nc1cc(OC)c(OC)cc1C(=O)OC`: over 40000 nM.

As usually defined, the IC50 is the point on the concentration scale where inhibition reaches its midpoint.
